Reference: patent publication EP1690525B1, “Gamma-polyglutamate hydrogels for use as super moisturizers in cosmetic and personal care products” (Tung Hai Biotechnology Corporation, priority 2005, dated 2006)
Blank lines part the entries; values can stand above or below the compound they belong to.

What was measured:
[1] = tested on: outside skin surface of the arm of a test panelist; test: Moisture retention of the skin after peeling off facial moisture mask (capacitance, Skin Analysis SHP88); type: in vivo, human; settings: 5.0% in facial moisture mask; mask film peeled off after 15 minutes; 23°C, RH 65%
[2] = tested on: outside surface of the upper arm skin of a test panelist; test: Skin irritation patch test, Draize method; type: in vivo, human; settings: 5.0% in facial moisture mask; patched 24 hours
Source text: The small molecular weight γ-polyglutamate in […] with 200,000 to 400,000 daltons (designated as LM), high molecular weight γ-polyglutamate in Ca^++ form with 1.15x10^6 to 1.35x10^6 daltons (designated as HM), and γ-polyglutamate hydrogel (prepared from γ-polyglutamate in Na^+ form) with molecular weight from 15x10^6 to 100x10^6 or higher (cross-linked with gamma ray irradiation) were used as super moisturizers. The species and proportions of the ingredients contained in the exemplified facial moisture mask formulation are listed in Table 5. Table 5. Facial Moisture Mask Formulation
The moisture mask samples of 25 cm^2 were taken from experimental example 4 and patched evenly on the outside surface of the upper arm skin of a test panelist. A group of 10 panelists participated in this test. After 24 hours, then the mask samples were removed and the skin was observed carefully for any degree of irritation, and the results were recorded according to Draize method (see Appraisel of the Safety of Chemicals in Food, Drugs and Cosmetics. Pharmacolo. 93:377-392, 1948, Draize, F. et al.). Table 6. The film formation time, capacity increase ratio (%), the pH value of the skin, and the Draize score after applying facial moisture masks

Pig skin [3] = test: Ex-vivo pig skin: Trans-Epidermal-Water-Loss (TEWL); parameters: unit not given here; settings: 6.5% in skin moisture cream
Pig skin [4] = test: Ex-vivo pig skin: skin moisture retention by corneometry; settings: 6.5% in skin moisture cream, 23°C and RH 60%
Experimental: Table 9. Skin moisture cream formulation.
Pig skin was used for this experiment. The skin moisture was measured at 23 °C under an environment of relative humidity (RH) of 60% with a probe of corneometer HM99 of Courage^+Khazaka Electronic Gmbh, Germany.

tyrosinase = test: Inhibition of tyrosinase activity (absorbency at 475 nm); type: biochemical; settings: 1.0% sample
Source text: Although the formation of black pigment melanin on skin is complicated, it is generally realized that tyrosine is oxidized to DOPA (Dihydroxy Phenyalanine) by the catalysis of tyrosinase from melansome of melanocyte. The DOPA is further oxidized and finally converted into colored melanin-protein complex. The small molecular weight γ-polyglutamate in Na^+ form with 200,000 to 350,000 daltons (designated as LM) and high molecular weight γ-polyglutamate in Na^+ form with 1.15x10^6 to 1.35x10^6 daltons (designated as HM) were used in this experiment to determine the effectiveness in inhibiting the tyrosinase activity. • a. […] Sample of the reaction solution is then taken for measuring the absorbency at 475 nm, and recorded as At. • b. Determination of the blank absorbance of tyrosinase solutuion: • Replace 0.1 ml of buffer solution with tyrosinase solution, and repeat the same procedure in item (a), and record the absorbency at 475 nm as A1. • c. Replace 1 ml sample solution with buffer solution, and repeat the same procedure in item (a), and record the absorbance at 475 nm as Ab. • d. Determination of total blank absorbance of test solution: • Replace 1 ml sample solution with buffer solution, and 0.1 ml of tyrosinase solution with buffer solution, and repeat the procedure in item (a), and record the absorbency at 475 nm as Ao. • e. […]

[5] = tested on: outside skin surface of the panelist's arm; test: Skin moisturization by corneometer HM99 (ΔCU=CU2-CU1); type: in vivo, human; settings: 2% in skin moisture cream
Experimental: Table 7: Skin moisture cream formulation. The cosmetic products from experimental example 6 were evaluated for the effectiveness of skin moisturization. A group of 5 test panelists participated in this experiment. The panelists were first put in a room with a temperature at 22 °C and relative humidity (RH) 60% for 15 minutes. A probe of the corneometer HM99 of Courage^+Khazaka Electronic Gmbh, Germany was used to measure the skin moisture of the outside skin surface of the panelist's arm to determine the base line as (CU1). A sample of 0.2g from the formulation of experimental example 6 was evenly spread over an area of 25 cm^2 of the skin surface for 2 minutes before the excess formulation sample was removed. After 2 hours the skin moisture was measured again and recorded as (CU2). Before the measurement the panelists were placed in a room with temperature at 22 °C and RH 60% for 15 minutes. The atteration of skin moisture is then calculated as ΔCU=CU2-CU1.

[6] = tested on: inside skin surface of a test panelist's arm; test: Water retention on skin after skin vital moisture cream (capacitance, Skin Analysis SHP88); type: in vivo, human; settings: 5% in skin vital moisture cream, 22°C and RH 65%
Experimental: Table 2: Skin vital moisture cream formulation. […] A sample of 0.2g from each of the 5 products was evenly spread over an area of about 25 cm^2 on the inside skin surface of a test panelist's arm. A group of 10 panelists participated in this test. The water retention on the skin surface was measured at 23 °C under an environment of relative humidity of 60%, with a probe of Skin Analysis SHP88 made by Courage ^+Khazaka Electronic Gmbh, Germany. […] Table 3. The change of moisture retention over time after applying vital moisture creams, was expressed in terms of capacitance increase ratio, %, measured at 22°C and RH 65%.

SMILES: CC(O)CCO (stereo not drawn) [1,3-BG, 1,3-Butyl Glycol]
Capacitance Increase Ratio, % [1]: 73.2%
Draize Score [2]: 0

SMILES: OCC(O)CO [Glycerol]
Trans-Epidermal-Water-Loss (TEWL) (Pig skin [3]; Time 0 hour): 21.0.
Trans-Epidermal-Water-Loss (TEWL) (Pig skin [3]; Time 1 hour): 19.5
Trans-Epidermal-Water-Loss (TEWL) (Pig skin [3]; Time 2 hour): 19.0
Trans-Epidermal-Water-Loss (TEWL) (Pig skin [3]; Time 2 hour, listed as glycerol): 10.0
Trans-Epidermal-Water-Loss (TEWL) (Pig skin [3]; Time 4 hour): 17.5
Trans-Epidermal-Water-Loss (TEWL) (Pig skin [3]; Time -1 hour): 24.7
Difference Corneometry, % (Pig skin [4]; Time 0 hour): 48.. %
Difference Corneometry, % (Pig skin [4]; Time 1 hour): 32%
Difference Corneometry, % (Pig skin [4]; Time 2 hour): 20%
Difference Corneometry, % (Pig skin [4]; Time 4 hour): 17%
Difference Corneometry, % (Pig skin [4]; Time -1 hour): 100%

Inhibition of Tyrosinase Activity, % (tyrosinase): 100.0%
SMILES: O=c1cc(CO)occ1O [Kojic Acid]

SMILES: C[N+](C)(C)CC(=O)O [Natural Betaine]
Increase in Skin Moisture ΔCU ([5]; after 2 hours, 22 °C, RH 60%): 12.3
Relative ΔCU % ([5]; relative to 5% Glycerol = 100): 164%

SMILES: CC(O)CO (stereo not drawn) [Propylene Glycol]
Capacitance Increase Ratio, % ([6]; Time 0 min): 0%
Capacitance Increase Ratio, % ([6]; Time 5 min): 105%
Capacitance Increase Ratio, % ([6]; Time 10 min): 57%
Capacitance Increase Ratio, % ([6]; Time 20 min): 51%
Capacitance Increase Ratio, % ([6]; Time 40 min): 40%
Capacitance Increase Ratio, % ([6]; Time 80 min): 38%
Capacitance Increase Ratio, % ([6]; Time 120 min): 36%

Inhibition of Tyrosinase Activity, % (tyrosinase): 99.4%
SMILES: O=C1O[C@H]([C@@H](O)CO)C(O)=C1O [Vitamin C]
